One test has as its target T1, His6Hh-C (Drosophila melanogaster, UniProt Q02936).
T1 construct: made in house
As to the kind of experiment: In vitro Hh autoprocessing reaction with purified components. In kind it is biochemical. The following applies: for efficiency in driving the in vitro autoprocessing reaction: 12 µM sterol.

Another test relates to Shh-N. As to the kind of experiment: Intermediate neural plate explant response to exogenous Shh-N protein. In kind it is cell-based, chick.
The next test concerns BMP7. As to the kind of experiment: Neural plate explant response to BMP7 (migratory HNK-1 positive cells). In kind it is cell-based, chick.
The mark [1] stands for this setting: at the concentrations that block the response to 25 nM Shh-N.

Read-outs that look alike come from different tables or passages of the source.

T1 sequence (Q02936 252-471): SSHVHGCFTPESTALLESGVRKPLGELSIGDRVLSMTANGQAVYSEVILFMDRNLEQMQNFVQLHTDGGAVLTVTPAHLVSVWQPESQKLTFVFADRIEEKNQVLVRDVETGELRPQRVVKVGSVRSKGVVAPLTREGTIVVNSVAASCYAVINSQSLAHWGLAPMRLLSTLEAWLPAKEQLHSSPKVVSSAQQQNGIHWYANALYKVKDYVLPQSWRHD

Turning to `CC(C)CCC[C@@H](C)[C@H]1CC[C@H]2[C@@H]3CC=C4C[C@H](O)CC[C@]4(C)[C@H]3CC[C@]12C` [Epicholesterol], on His6Hh-C, the “participation of sterol in the autoprocessing reaction” value (shortened to “participation of sterol”) is “unable to participatein the reaction”. On to `CCN(CC)CCCC(C)Nc1ccnc2cc(Cl)ccc12` (centres unmarked) [chloroquine], for which the “concentration that blocks the response of intermediate neural plate explants to 25 nM Shh-N” value (shortened to “concentration that blocks the response”) with Shh-N stood at 50 µM. The “signaling by BMP7” value with BMP7 is reported as “without affecting signaling by BMP7”. In the case of `C[C@H](CCCC(C)(C)O)[C@H]1CC[C@H]2[C@@H]3CC=C4C[C@@H](O)CC[C@]4(C)[C@H]3CC[C@]12C` [25-hydroxycholesterol], the “reversal of the inhibitory effects of the teratogenic compounds” value in the test on Shh-N (25 µM added together with teratogenic compounds) is listed as “did not reverse the inhibitory effects”. For the same compound, the “explant responses to Shh-N” value in the test with Shh-N (25 µM, 2nM or 25 nM Shh-N) is “None of the explant responses to treatment with 2nM or 25 nM Shh-N were affected”. For the compound `CC(C)CCC[C@@H](C)[C@H]1CC[C@H]2C3=CC=C4C[C@@H](O)CC[C@]4(C)[C@H]3CC[C@]12C` [7DHC, 7-dehydrocholestetol], the “efficiency in driving the in vitro autoprocessing reaction” value (from here on “efficiency”) on His6Hh-C was “efficiencies similar to that of cholesterol”. Regarding `CC(C)CCC[C@@H](C)[C@H]1CC[C@H]2C3=CC[C@H]4C[C@@H](O)CC[C@]4(C)[C@H]3CC[C@]12C` [lathosterol], the “efficiency” value on His6Hh-C is “efficiencies similar to that of cholesterol”.

For the compound `CC(C)CC[C@@H](O)[C@](C)(O)[C@H]1CC[C@@]2(O)C3=CC(=O)[C@]4(O)C[C@@H](O)[C@@H](O)C[C@]4(C)[C@H]3[C@H](O)C[C@]12C` [muristerone], the stimulation of autoprocessing entry at His6Hh-C is reported as “do not stimulate autoprocessing above background”. With `CC(C)=CCC[C@@H](C)[C@H]1CC[C@@]2(C)C3=C(CC[C@]12C)[C@@]1(C)CC[C@H](O)C(C)(C)[C@@H]1CC3` [Lanosterol], at His6Hh-C (12 and 350 µM), the stimulation of autoprocessing entry was “do not stimulate autoprocessing above background”. Turning to `CC(=O)O[C@H]1CC[C@@]2(C)C(=CC[C@H]3[C@@H]4CC[C@H]([C@H](C)CCCC(C)C)[C@@]4(C)CC[C@@H]32)C1` [cholesterol acetate], the “participation of sterol” value on His6Hh-C was “unable to participatein the reaction”.

As to `C[C@H]([C@H](O)CCC(C)(C)O)[C@H]1CC[C@@]2(O)C3=CC(=O)[C@@H]4C[C@@H](O)[C@@H](O)C[C@]4(C)[C@H]3CC[C@]12C` [α-ecdysone], the “participation of sterol” value at His6Hh-C is “unable to participatein the reaction”.

Turning to `CN(C)CCCN1c2ccccc2CCc2ccccc21` [imipramine], the “concentration that blocks the response” value in the test with Shh-N (25 nM Shh-N) is given as 75 µM. Besides, in the test on BMP7 (setting [1]), the “signaling by BMP7” value is recorded as “without affecting signaling by BMP7”. The like results for `CC(=O)[C@H]1CC[C@H]2[C@@H]3CCC4=CC(=O)CC[C@]4(C)[C@H]3CC[C@]12C` [progesterone] were, in that order, 20 µM and “without affecting signaling by BMP7”. On to `CC(C)CCC[C@@H](C)[C@H]1CC[C@H]2[C@@H]3CC=C4C[C@@H](S)CC[C@]4(C)[C@H]3CC[C@]12C` [thiocholesterol], for which the “participation of sterol” value at His6Hh-C was “unable to participatein the reaction”. With `CCN(CC)CCO[C@H]1CC[C@@]2(C)C(=CC[C@@H]3[C@@H]2CC[C@]2(C)C(=O)CC[C@@H]32)C1` [U 18666A], in the test on Shh-N (25 nM Shh-N), the “concentration that blocks the response” value is 0.25 µM. The “signaling by BMP7” value in the test on BMP7 (setting [1]) is reported as “without affecting signaling by BMP7”. For `CC(C)=CCC[C@@H](C)[C@H]1CC[C@H]2[C@@H]3CC=C4C[C@@H](O)CC[C@]4(C)[C@H]3CC[C@]12C` [desmosterol], the “efficiency” value on His6Hh-C is given as “efficiencies similar to that of cholesterol”. `CC(C)(O)CC[C@@H](O)[C@](C)(O)[C@H]1CC[C@@]2(O)C3=CC(=O)[C@@H]4C[C@@H](O)[C@@H](O)C[C@]4(C)[C@H]3CC[C@]12C` [20-OH ecdysone]: the “participation of sterol” value on His6Hh-C is “unable to participatein the reaction”.

For the origin of these results see patent EP1067939B1, “USE OF STEROIDAL ALKALOID DERIVATIVES AS INHIBITORS OF HEDGEHOG PROTEIN SIGNALING PATHWAYS” (The Johns Hopkins University, priority 1998, dated 1999).
